55 compounds from patent US9303033B2, “Pyrazolopyrimidines and related heterocycles as CK2 inhibitors” (SENHWA BIOSCIENCES, INC., priority 2009, dated 2016) can be followed below.

Structures are written as SMILES. pIC50: −log10 of the molar value. Where two headings read alike, the source gives them in different places.

Experiment [1] deals with CK2 ααββ (Homo sapiens (Human), UniProt P68400). Briefly: CK2 assay (cell-free, 33P-ATP, phosphocellulose filter plate). It counts as biochemical.
Protocol: Modulatory activity of compounds described herein was assessed in vitro in cell-free CK2 assays by the following method.
Reactions were maintained for 40 min at 23° C. The reactions were quenched with 100 ul of 0.75% Phosphoric acid, then transferred to and filtered through a Phosphocellulose filter plate (Millipore, MSPH-N6B-50). After washing each well 4 times with 0.75% Phosphoric acid, scintillation fluid (20 uL) was added to each well and the residual radioactivity was measured using a Wallac luminescence counter.
Experiment [2] deals with recombinant human PIM2 (Homo sapiens (Human), UniProt Q9P1W9). Briefly: PIM-2 assay (33P-ATP filter binding). Format: biochemical.
Protocol: Test compounds dissolved and diluted in DMSO (2 μl) were added to a reaction mixture comprising 10 μl of 5× Reaction Buffer (40 mM MOPS pH 7.0, 5 mM EDTA), 10 μl of recombinant human PIM2 solution (4 ng PIM-2 dissolved in dilution buffer (20 mM MOPS pH 7.0; EDTA 1 mM; 5% Glycerol; 0.01% Brij 35; 0.1%; 0.1% 2-mercaptoethanol; 1 mg/ml BSA)) and 8 ul of water.
Setting [3] is: PIM2: IC50 (5 μM ATP), 5 μM ATP.

recombinant human PIM2, sequence (Q9P1W9 whole entry): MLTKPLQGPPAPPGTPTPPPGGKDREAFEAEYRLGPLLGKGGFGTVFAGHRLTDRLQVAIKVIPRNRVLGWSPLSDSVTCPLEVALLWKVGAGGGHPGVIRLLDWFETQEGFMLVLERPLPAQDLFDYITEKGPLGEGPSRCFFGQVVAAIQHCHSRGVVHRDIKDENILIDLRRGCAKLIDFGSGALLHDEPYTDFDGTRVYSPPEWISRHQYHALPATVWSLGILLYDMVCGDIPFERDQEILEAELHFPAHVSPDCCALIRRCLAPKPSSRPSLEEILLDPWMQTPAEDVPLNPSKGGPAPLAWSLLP
CK2 ααββ, sequence (P68400 whole entry): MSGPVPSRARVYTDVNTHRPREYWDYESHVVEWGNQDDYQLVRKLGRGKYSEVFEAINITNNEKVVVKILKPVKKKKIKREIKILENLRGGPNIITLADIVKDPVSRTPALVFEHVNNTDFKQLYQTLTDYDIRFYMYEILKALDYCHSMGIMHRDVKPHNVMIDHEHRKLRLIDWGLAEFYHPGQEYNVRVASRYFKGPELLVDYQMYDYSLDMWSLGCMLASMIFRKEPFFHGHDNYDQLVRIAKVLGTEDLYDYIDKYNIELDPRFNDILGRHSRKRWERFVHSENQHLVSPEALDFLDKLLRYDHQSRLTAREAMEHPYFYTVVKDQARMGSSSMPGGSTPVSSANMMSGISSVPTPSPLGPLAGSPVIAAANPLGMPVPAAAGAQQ
CK2 ααββ, sequence (P67870 whole entry partner): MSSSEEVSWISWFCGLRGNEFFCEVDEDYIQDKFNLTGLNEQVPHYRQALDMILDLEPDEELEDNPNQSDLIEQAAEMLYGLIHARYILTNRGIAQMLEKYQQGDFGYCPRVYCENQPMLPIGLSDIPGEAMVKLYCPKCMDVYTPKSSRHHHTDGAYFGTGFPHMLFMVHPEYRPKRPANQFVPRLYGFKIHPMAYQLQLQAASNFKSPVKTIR

The compound `CC(CNc1cc(Nc2cc(Cl)ccc2F)nc2c(C=C3NC(=O)NC3=O)cnn12)N1CCOCC1` (racemic) [Example 515] showed a pIC50 in experiment [1] above 8.00.
Turning to `CC(Oc1nc(NC2CC2)n2ncc(C=C3NC(=O)NC3=O)c2n1)c1c(Cl)ccc(F)c1Cl` (stereo not shown) [Compound L36], the negative-log IC50 (pIC50) is above 8.00 in experiment [1] and below 6.00 in experiment [2] (read-out: PIM2: IC50).
`O=C1NC(=O)C(=Cc2cnn3c(NC4CC4)nc(OCc4ccccn4)nc23)N1` [Compound M36]: the pIC50 in experiment [1] was above 8.00; in experiment [2] (read-out: PIM2: IC50), below 6.00.
As to `Cc1nn2c(NC3CC3)cc(Nc3ccc(-n4cccn4)cc3)nc2c1C=C1NC(=O)NC1=O` [Example 275, 5-((5-(4-(1H-pyrazol-1-yl)phenylamino)-7-(cyclopropylamino)-2-methylpyrazolo[1,5-a]pyrimidin-3-yl)methylene)imidazolidine-2,4-dione], the pIC50 in experiment [1] was below 6.00. The inhibition at […] in experiment [2] (read-out: PIM2: % inh […], at 2.5 μM compound) was 43.4%.
In experiment [1], `Cc1cccc(Nc2cc(NCC3CC3)n3ncc(/C=C4\NC(=O)NC4=O)c3n2)c1` [Example A2] gave a pIC50 above 7.00.
For the compound `O=C1NC(=O)/C(=C/c2cnn3c([S+]([O-])Cc4ccccc4)cc(-c4cccc(Cl)c4)nc23)N1` (stereo not shown) [Example A6], the results for the pIC50 in experiment [1] and in experiment [2] (setting [3]) were above 7.00 and 6.68, respectively.
As to `O=C1NC(=O)/C(=C/c2cnn3c(NCC4(CN5CCCC5)CC4)cc(Nc4cccc(Cl)c4)nc23)N1` [Example A7], the pIC50 in experiment [1] was above 7.00.
In the case of `O=C1NC(=O)/C(=C/c2cnn3c(NC(=O)C4CCNCC4)cc(Nc4cccc(Cl)c4)nc23)N1` [Example B1, N-(5-(3-chlorophenylamino)-3-((2,5-dioxoimidazolidin-4-ylidene)methyl)pyrazolo[1,5-a]pyrimidin-7-yl)piperidine-4-carboxamide], the pIC50 was above 6.00 in experiment [1] and 5.60 in experiment [2] (setting [3]).
`O=C1NC(=O)/C(=C/c2cnn3c(NCC4CC4)cc(Nc4cccc(O)c4)nc23)N1` [Example B2] showed a pIC50 in experiment [1] above 7.00.
For `CN(C)C(=O)N[C@H]1CC[C@H](Nc2cc(NC3CC3)n3ncc(/C=C4\NC(=O)NC4=O)c3n2)CC1` [Example B3], the pIC50 in experiment [1] was above 7.00; in experiment [2] (setting [3]) it was 6.27.
In turn, `O=C1NC(=O)/C(=C/c2cnn3c(NCC4CC4)cc(Nc4cccc(CN5CCOCC5)c4)nc23)N1` [Example C2] had a pIC50 in experiment [1] above 7.00.
Turning to `COC(=O)N[C@H]1CC[C@H](Nc2cc(NC3CC3)n3ncc(/C=C4\NC(=O)NC4=O)c3n2)CC1` [Example C3], the pIC50 was above 8.00 in experiment [1] and 6.17 in experiment [2] (setting [3]).
For the compound `Cc1cc(-c2cc(NC3CC3)n3ncc(/C=C4\NC(=O)NC4=O)c3n2)cc(C)c1O` [Example C5], the pIC50 in experiment [1] was above 6.00; in experiment [2] (setting [3]) it was below 5.60.
The compound `O=C1NC(=O)/C(=C/c2cnn3c(NCC4CC4)cc(Nc4ccc(F)c(Cl)c4)nc23)N1` [Example D2] had a pIC50 in experiment [1] above 7.00.
Consider `CC(=O)NC1CCC(Nc2cc(NC3CC3)n3ncc(/C=C4\NC(=O)NC4=O)c3n2)CC1` (stereo not shown) [Example D3], for which the pIC50 in experiment [1] is above 8.00; in experiment [2] (read-out: PIM2: IC50 (5 μM ATP), 5 μM ATP), 6.32.
In the case of `O=C1NC(=O)/C(=C/c2cnn3c(NCC4CC4)cc(Nc4ccncc4)nc23)N1` [Example E2], the pIC50 in experiment [1] is above 8.00.
Regarding `CS(=O)(=O)N[C@H]1CC[C@H](Nc2cc(NC3CC3)n3ncc(/C=C4\NC(=O)NC4=O)c3n2)CC1` [Example E3], the results for the pIC50 in experiment [1] and in experiment [2] (setting [3]) were above 8.00 and below 5.60, respectively.
For the compound `O=C1NC(=O)/C(=C/c2cnn3c(NC4CC4)cc(-c4ccc(F)c(C(=O)NCCN5CCCC5)c4)nc23)N1` [Example E5], the pIC50 in experiment [1] is above 7.00; in experiment [2] (setting [3]) it was below 5.60.
In the same order, the values of `O=C1NC(=O)/C(=C/c2cnn3c(NCc4ccncc4)cc(Nc4cccc(Cl)c4)nc23)N1` [Example E6] are above 6.00 and 5.87.
As for `O=C1NC(=O)/C(=C/c2cnn3c(NCC4CC4)cc(Nc4cccc(S(=O)(=O)N5CCCC5)c4)nc23)N1` [Example F2], the negative-log IC50 (pIC50) in experiment [1] is above 7.00.
In the case of `CC(C)Nc1cc(Nc2cccc(Cl)c2)nc2c(/C=C3\NC(=O)NC3=O)cnn12` [Example F6], the pIC50 in experiment [1] is above 7.00; in experiment [2] (setting [3]) it was below 5.60.
Take `CNC(=O)c1cccc(Nc2cc(NCC3CC3)n3ncc(/C=C4\NC(=O)NC4=O)c3n2)c1` [Example G2]: in experiment [1], the pIC50 is above 8.00.
Take `O=C1NC(=O)/C(=C/c2cnn3c(NC4CCC4)cc(Nc4cccc(Cl)c4)nc23)N1` [Example G6]: the pIC50 was above 6.00 in experiment [1] and below 5.60 in experiment [2] (setting [3]).
For the compound `O=C1NC(=O)/C(=C/c2cnn3c(NCC4CC4)cc(Nc4ccc(Cl)cn4)nc23)N1` [Example H2], the pIC50 in experiment [1] is above 8.00.
`COc1cccc(-c2cc(NC3CC3)n3ncc(/C=C4\SC(=O)NC4=O)c3n2)c1` [Example H5]: the negative-log IC50 (pIC50) in experiment [1] was above 7.00; in experiment [2] (setting [3]), 6.09.
For `O=C1NC(=O)/C(=C/c2cnn3c(NCc4ccccn4)cc(Nc4cccc(Cl)c4)nc23)N1` [Example H6], the pIC50 in experiment [1] is above 6.00; in experiment [2] (setting [3]) it was 6.38.
Regarding `O=C1NC(=O)/C(=C/c2cnn3c(NCC4CC4)cc(Nc4ccc(Cl)cc4)nc23)N1` [Example I2], the pIC50 in experiment [1] is above 7.00.
In the case of `O=C1NC(=O)/C(=C/c2cnn3c(NC4CC4)cc(-c4ccnc(F)c4)nc23)S1` [Example I5], the pIC50 in experiment [1] was above 6.00; in experiment [2] (setting [3]) it was 6.66.
For the compound `O=C1NC(=O)/C(=C/c2cnn3c(NCC4CC4)cc(Nc4cc(F)cc(F)c4)nc23)N1` [Example J2], the pIC50 in experiment [1] is above 7.00; in experiment [2] (setting [3]) it was below 5.60.
Turning to `O=C1NC(=O)/C(=C/c2cnn3c(NCCN4CCOCC4)cc(Nc4cccc(Cl)c4)nc23)N1` [Example L6], the pIC50 in experiment [1] was above 5.70; in experiment [2] (setting [3]) it was 5.66.
In the same order, the values of `CC(C)Oc1cccc(Nc2cc(NC3CC3)n3ncc(/C=C4\NC(=O)NC4=O)c3n2)c1` [Example M1] are above 8.00 and below 5.60.
For `CN(C)CC(C)(C)CNc1cc(Nc2cccc(Cl)c2)nc2c(/C=C3\NC(=O)NC3=O)cnn12` [Example M6], the pIC50 was above 6.00 in experiment [1] and below 5.60 in experiment [2] (setting [3]).
`O=C1NC(=O)/C(=C/c2cnn3c(NC4CC4)cc(Nc4cc(F)cc(F)c4)nc23)N1` [Example N1]: the pIC50 in experiment [1] was above 8.00; in experiment [2] (setting [3]), 5.71.
With `CC(C)(C)OC(=O)N1CCCC1CNc1cc(Nc2cccc(Cl)c2)nc2c(/C=C3\NC(=O)NC3=O)cnn12` (stereo not shown) [Example N6], the values for the pIC50 in experiment [1] and in experiment [2] (setting [3]) were above 7.00 and below 5.60, respectively.
Consider `O=C1NC(=O)/C(=C/c2cnn3c(NC4CC4)cc(Nc4ccccn4)nc23)N1` [Example O1], for which the pIC50 in experiment [1] was above 8.00; in experiment [2] (setting [3]), below 5.60.
On the same counts, the results for `CCN(CC)CCNc1cc(NC2CC2)n2ncc(/C=C3\SC(=O)NC3=O)c2n1` [Example O3] are above 7.00 and below 5.60.
In the same order, the values of `COc1cccc(Nc2cc(NC3CC3)n3ncc(/C=C4\NC(=O)NC4=O)c3n2)c1Cl` [Example P1] are above 8.00 and below 5.60.
Regarding `O=C1NC(=O)/C(=C/c2cnn3c(NC4CC4)cc(Nc4cc(Cl)ccc4F)nc23)N1` [Example Q1], the pIC50 was above 8.00 in experiment [1] and below 5.60 in experiment [2] (setting [3]).
For `CN1CCCN(c2cc(NC3CC3)n3ncc(/C=C4\SC(=O)NC4=O)c3n2)CC1` [Example Q3], the pIC50 in experiment [1] is above 7.00; in experiment [2] (setting [3]), 5.69.
As to `CC(C)N1CCC(Nc2cc(Nc3cccc(Cl)c3)nc3c(/C=C4\NC(=O)NC4=O)cnn23)CC1` [Example Q5], the pIC50 in experiment [1] is above 7.00; in experiment [2] (setting [3]) it was below 5.60.
In the same order, the values of `O=C1NC(=O)/C(=C/c2cnn3c(NC4CC4)cc(Nc4ccc(-n5cccn5)cc4)nc23)N1` [Example R1] are above 8.00 and below 5.60.
For `N[C@H]1CC[C@H](Nc2cc(NC3CC3)n3ncc(/C=C4\NC(=O)NC4=O)c3n2)CC1` [Example R2], the pIC50 in experiment [1] is above 7.00; in experiment [2] (setting [3]), 6.06.
With `O=C1NC(=O)/C(=C/c2cnn3c(NC4CC4)cc(N4CCN(c5ccccn5)CC4)nc23)S1` [Example R3], the figures for the negative-log IC50 (pIC50) in experiment [1] and in experiment [2] (setting [3]) were above 6.00 and 5.74, respectively.
Consider `CC(C)CN1CCC(Nc2cc(Nc3cccc(Cl)c3)nc3c(/C=C4\NC(=O)NC4=O)cnn23)CC1` [Example R5], for which the pIC50 in experiment [1] was above 7.00; in experiment [2] (setting [3]), 5.66.
As for `O=C1NC(=O)/C(=C/c2cnn3c(NCC4(CO)CCCC4)cc(Nc4cccc(Cl)c4)nc23)N1` [Example R6], the values for the pIC50 in experiment [1] and in experiment [2] (setting [3]) were above 6.00 and 5.95, respectively.
As to `Cc1c(N2CCN(c3ncccc3C#N)CC2)nc2c(C=C3NC(=O)NC3=O)cnn2c1NC1CC1` [Example R46], in experiment [1], the pIC50 was above 6.00. In addition, in experiment [2] (at […] compound), the “PIM2: % inh […]” value was 68.545%.
Regarding `O=C1NC(=O)/C(=C/c2cnn3c(NC4CC4)cc(Nc4ccc(F)c(Cl)c4)nc23)N1` [Example S1], the pIC50 was above 8.00 in experiment [1] and 5.69 in experiment [2] (setting [3]).
`O=C1NC(=O)/C(=C/c2cnn3c(Nc4cc[nH]n4)cc(Nc4cccc(Cl)c4)nc23)N1` [Example S6] gave a negative-log IC50 (pIC50) in experiment [1] above 7.00.
In experiment [1], `CC(C)(C)OC(=O)N1CCC(CNc2cc(Nc3cccc(Cl)c3)nc3c(/C=C4\NC(=O)NC4=O)cnn23)CC1` [Example T6] gave a negative logarithm of the IC50 (pIC50) above 7.00.
Consider `CC(C)(CO)CNc1cc(Nc2cccc(Cl)c2)nc2c(/C=C3\NC(=O)NC3=O)cnn12` [Example V6], for which the pIC50 in experiment [1] is above 7.00.
Turning to `CC(C)C(CNc1cc(Nc2cccc(Cl)c2)nc2c(/C=C3\NC(=O)NC3=O)cnn12)N(C)C` (stereo not shown) [Example W6], the negative-log IC50 (pIC50) in experiment [1] was above 6.00.
Regarding `CCOCC1(CNc2cc(Nc3cccc(Cl)c3)nc3c(/C=C4\NC(=O)NC4=O)cnn23)CC1` [Example X6], the pIC50 in experiment [1] was above 6.00.
In turn, `CN1CCN(CC2(CNc3cc(Nc4cccc(Cl)c4)nc4c(/C=C5\NC(=O)NC5=O)cnn34)CC2)CC1` [Example Y6] showed a pIC50 in experiment [1] above 7.00.
The same measure, in the same setting: with `NCc1cccc(Nc2cc(NCC3CC3)n3ncc(/C=C4\NC(=O)NC4=O)c3n2)c1` [Example Z1] the figure was above 7.00; with `O=C1NC(=O)/C(=C/c2cnn3c(NCC4(CN5CCOCC5)CC4)cc(Nc4cccc(Cl)c4)nc23)N1` [Example Z6], above 7.00.

As a reminder, the pIC50 is the IC50 on a negative log10 scale, so that one unit is a factor of ten.
